# Source: paper PMC9698773, “Design, Synthesis, Molecular Modeling, and Anticancer Evaluation of New VEGFR-2 Inhibitors Based on the Indolin-2-One Scaffold” (Pharmaceuticals, 2022)
# Key:
# VEGFR-2 = VEGFR-2 (Homo sapiens, UniProt P35968); test: In vitro VEGFR-2 kinase inhibitory assay (VEGFR2 (KDR) Kinase Assay Kit)
# Protocol: In vitro VEGFR‐2 kinase inhibitory assay
# for their inhibitory activity against VEGFR‐2. Human BPS bioscience® VEGFR2 (KDR) Ki‐ nase Assay Kit (Enzyme‐Linked Immunosorbent Assay) was utilized in this test. The lu‐ minescent signal from the assay is correlated with the amount of ATP present and is in‐ versely correlated with the amount of kinase activity. The compounds were diluted to 100 μM in 10% DMSO and 5 ml of the diluted solution was added to a 50 ml reaction so that the final concentration of DMSO was 1% in all of reactions. All of the enzymatic reactions were conducted at 30 °C for 40 min. The 50 μl reaction mixture contains 40 μM Tris, pH 7.4, 10 μM MgCl2, 0.1 mg/ml BSA, 0.2 mg/ml Poly (Glu, Tyr) substrate, 10 μM ATP, and VEGFR‐2. After the enzymatic reaction, 50 ml of Kinase‐GloPlus Luminescence kinase as‐ say solution (Promega) was added to each reaction and the plate was incubated for 5 min at room temperature. Luminescence signal was measured using a BioTek Synergy 2 mi‐ croplate reader. The protein kinase assays used to determine IC50 values were performed using a ADP‐GloTM assay kit from Promega, which measures the generation of ADP by the protein kinase. Generation of ADP by the protein kinase reaction leads to an increase in luminescence signal in the presence of the ADP‐GloTM assay kit. The assay was started by incubating the reaction mixture in a 96‐well plate at 30 °C for 30 min. After the 30 mi n incubation period, the assay was terminated by the addition of 25 ml of ADP‐GloTM Re‐ agent (Promega). The 96‐well plate was shaken and then incubated for 40 min at ambient temperature; 50 ml of Kinase detection reagent was added, the 96‐well reaction plate wa s then read using the ADP‐Glo Luminescences Protocol on a GloMax plate reader (Promega: Catalog #E7031). The blank control was set up which included all the assay components, except the addition of appropriate substrates (replaced with equal volume of kinase assay buffer). The corrected activity for each protein kinase target was deter‐ mined by removing the blank control value. IC50 determination for inhibitor against VEGFR‐2 was estimated by generating a graph of log inhibitor vs normalized response with variables.
# MCF-7 cell line = test: MTT cytotoxicity assay, MCF-7; format: cell-based, human
# Protocol: The cytotoxic activities against breast MCF-7 and liver HepG2 cancer cell lines for all the synthesized compounds 3a,b–17a,b were evaluated by MTT-based cytotoxicity assay. Sunitinib was selected as a reference standard in this study, and the results are presented as IC50 in Table 1.
# The anticancer activities of the target compounds 3a,b–17a,b were quantitatively assessed using the MTT protocol against the MCF-7 and HepG2 cell lines, as described in the Supplementary Materials. […]
# 4.2. Biological investigation
# 4.2.1. In vitro cytotoxic activity assay
# Citation: Abdelgawad, M.A.; Cell Line cells were obtained from the American Type Culture Collection. The cells Hayallah A.M.; Bukhari S.N.A.; were cultured using DMEM (Invitrogen/Life Technologies) supplemented with 10% FBS Musa A.; Elmowafy M.; (Hyclone,), 10 ug/ml of insulin (Sigma), and 1% penicillin‐streptomycin. All of the other Abdel‐Rahman, H.M.; chemicals and reagents were from Sigma or Invitrogen. Plate cells (cells density 1.2 – 1.8 Abd El‐Gaber, M.K. Design, × 10,000 cells/well) in a volume of 100μl complete growth medium + 100 μl of the tested Synthesis, Molecular Modeling, and compound per well in a 96‐well plate for 24 hours before the MTT assay. The tested com‐ Anticancer Evaluation of New pounds were dissolved in DMSO just before the test.
# VEGFR‐2 Inhibitors Based on the Indolin‐2‐One Scaffold. 4.2.1.1. Cell culture protocol
# Pharmaceuticals 2022, 15, x. The culture medium was removed to a centrifuge tube. The cell layer was briefly https://doi.org/10.3390/xxxxx rinsed with 5 mL of 0.25% (w/v) Trypsin and 3 mL of 0.53 mM EDTA solution to remove Academic Editor(s): Mary J. Meegan all traces of serum which contains Trypsin inhibitor. Next, 2.0 to 3.0 ml of Trypsin EDTA Received: 18 October 2022 solution was added to the flask and cells were observed under an inverted microscope Accepted: 9 November 2022 until the cell layer was dispersed (usually within 5 to 15 minutes). Then, 6.0 to 8.0 mL of Published: 14 November 2022 complete growth medium was added and cells aspirated by gently pipetting. The cell suspension was transferred to the centrifuge tube with the medium and cells from step 1, Publisher’s Note: MDPI stays neu‐and centrifuged at approximately 125 xg for 5 to 10 minutes. The supernatant was dis‐ tral with regard to jurisdictional carded and the cell pellet was suspended in fresh growth medium. Appropriate aliquots claims in published maps and institu‐ of the cell suspension were added to new culture vessels and incubated at 37°C for 24 hrs. tional affiliations. After treatment of cells with the serial concentrations of the compound to be tested, incu‐ bation was carried out for 48 h at 37 °C. The plates were examined under an inverted mi‐ croscope and proceeded for the MTT assay […]
# Submitted for possible open access 4.2.1.2. […]
# HepG‐2) were used in this test. At first, the cell lines were cultured in RPMI‐1640 medium Pharmaceuticals 2022, 15, x. https://doi.org/10.3390/xxxxx. www.mdpi.com/journal/pharmaceuticals […]
# Pharmaceuticals 2022, 15, x FOR PEER REVIEW 2 of 22 with 10% fetal bovine serum. Antibiotics (100 units/ml penicillin and100 μg/ml strepto‐ mycin) were added at 37 °C in a 5% CO2 incubator. The cell lines were seeded in a 96‐well plate at a density of 1.0 x 10^4 cells / well at 37 °C for 48 h under 5% CO2. After incubation, the cells were treated with different concentrations of the synthesized compounds and incubated for 24 h. After 24 h of drug treatment, 20 μl of MTT solution (5mg/ml) was added and incubated for 4 h. 100 μl of dimethyl sulfoxide (DMSO) was added into each well to dissolve the formed purple formazan. The colored solution was measured and recorded at an absorbance of 570 nm using a plate reader (EXL 800, USA). The relative cell viability was calculated in percentage as (A570 of treated samples/A570 of untreated sam‐ ple) X 100. The half maximal inhibitory concentration (IC50) values were presented using […]
# VEGFR-2, sequence (P35968 20-1356): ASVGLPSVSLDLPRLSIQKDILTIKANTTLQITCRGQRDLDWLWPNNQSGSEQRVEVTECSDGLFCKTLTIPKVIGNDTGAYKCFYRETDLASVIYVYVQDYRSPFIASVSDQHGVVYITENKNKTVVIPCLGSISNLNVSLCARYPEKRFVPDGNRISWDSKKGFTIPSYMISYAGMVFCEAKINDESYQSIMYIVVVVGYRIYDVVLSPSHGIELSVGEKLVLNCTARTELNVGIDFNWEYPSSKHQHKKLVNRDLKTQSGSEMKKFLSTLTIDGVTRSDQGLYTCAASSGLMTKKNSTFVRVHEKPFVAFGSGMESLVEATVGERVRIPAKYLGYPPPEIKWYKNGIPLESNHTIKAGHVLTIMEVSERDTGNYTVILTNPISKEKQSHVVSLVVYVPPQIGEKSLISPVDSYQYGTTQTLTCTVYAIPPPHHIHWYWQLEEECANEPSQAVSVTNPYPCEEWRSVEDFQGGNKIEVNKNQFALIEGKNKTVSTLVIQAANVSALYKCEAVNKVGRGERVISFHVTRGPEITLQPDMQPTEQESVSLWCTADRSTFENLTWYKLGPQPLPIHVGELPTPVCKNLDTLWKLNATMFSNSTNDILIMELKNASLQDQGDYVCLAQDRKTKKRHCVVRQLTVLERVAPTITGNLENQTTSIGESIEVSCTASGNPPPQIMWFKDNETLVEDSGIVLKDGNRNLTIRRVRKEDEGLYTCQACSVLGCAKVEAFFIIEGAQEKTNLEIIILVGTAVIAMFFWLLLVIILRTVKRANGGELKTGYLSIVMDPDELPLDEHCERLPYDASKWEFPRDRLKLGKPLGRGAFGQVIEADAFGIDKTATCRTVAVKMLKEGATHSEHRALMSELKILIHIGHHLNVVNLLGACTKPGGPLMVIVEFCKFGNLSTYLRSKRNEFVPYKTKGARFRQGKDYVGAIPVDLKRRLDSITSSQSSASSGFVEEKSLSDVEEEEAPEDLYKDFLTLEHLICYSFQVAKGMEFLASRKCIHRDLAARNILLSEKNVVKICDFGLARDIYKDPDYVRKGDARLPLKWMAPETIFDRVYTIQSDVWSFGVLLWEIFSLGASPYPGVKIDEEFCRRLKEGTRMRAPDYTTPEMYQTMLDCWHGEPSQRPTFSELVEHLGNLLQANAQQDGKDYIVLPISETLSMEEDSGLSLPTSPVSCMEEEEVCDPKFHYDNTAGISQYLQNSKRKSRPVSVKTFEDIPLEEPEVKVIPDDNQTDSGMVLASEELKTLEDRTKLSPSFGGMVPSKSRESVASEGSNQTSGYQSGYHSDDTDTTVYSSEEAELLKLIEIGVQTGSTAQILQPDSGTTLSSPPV
compound,measurement,setting,value
"O=C1Nc2ccccc2C1=Nc1ccc(C(=O)NNC(=S)Nc2ccccc2)cc1 [Compound 17a, 2-(4-((2-Oxoindolin-3-ylidene)amino)benzoyl)-N-phenylhydrazinecarbothioamide]",IC50,VEGFR-2,78 ± 3 nM
same,"fold more potent than sunitinib, VEGFR-2 inhibition",VEGFR-2; ratio of IC50 to sunitinib,1.78 fold
same,IC50,"MCF-7 cell line; Homo sapiens, MCF7, MTT assay, mean ± SD of three experiments",1440 ± 110 nM
same,"fold more potent than sunitinib, MCF-7",MCF-7 cell line; ratio of IC50 to sunitinib,three-fold
